From US9801960B2, “Probe for a biological specimen and labelling method and screening method using the probe” (CANON KABUSHIKI KAISHA, priority 2008, dated 2017)

Experiments:
Zebrafish juveniles = assay: In vivo labelling of Zebrafish juveniles with probe for biological specimen; design: key to Staining property: +++: stained; −: no stained; key to Fluorescence sensitivity: +++: strongly observed; ++: moderately observed; +: weakly observed; −: no stained; details: 1 hour; for Site(s) to be labelled: 10 ng/mL in water, stereoscopic microscope; for Fluorescence sensitivity / Staining property: 10 ng/mL; for Fluorescence sensitivity: fluorescence intensity visually evaluated; for Staining property: visually evaluated
Method in brief: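 Five zebrafish juveniles were immersed in distilled water containing staining compound at 10 ng/mL (DMSO solution) for 1 hour. They were then washed three times with Egg Water, immobilised in 3% methylcellulose and imaged by stereomicroscope. Staining and fluorescence intensity were scored visually on a +++ to − scale.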

[1] = Storage stability of staining compound solution in DMSO; type: physicochemical; details: 10 ng/mL in DMSO, closed glass container, normal temperature, 1 month; rate of change of absorbance and fluorescence intensity
Method in brief: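 Compounds held as 10 ng/mL DMSO solutions in closed glass containers at normal temperature for 1 month. Rates of change in absorbance and fluorescence intensity at a given wavelength versus start were scored: +++ <5%, ++ 5–15%, − >15%.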

[2] = Excitation and fluorescence emission wavelength measurement; type: physicochemical; design: Stokes shift (λem − λex): unit not given here; details: aqueous solution: 10 mg/mL solution in DMSO diluted 500-fold with purified water
Description: It should be noted that the excitation wavelength and the fluorescence emission wavelength of the staining compound were determined by measuring an aqueous solution, which had been obtained by diluting 500-fold a 10 mg/mL solution of the staining compound in DMSO with purified water, with a fluorescence spectrophotometer FL 4500 manufactured by Hitachi High-Technologies Corporation.

SMILES | Excitation wavelength λex [2] | Fluorescence emission wavelength λem [2] | Stokes shift (λem − λex) [2] | Site(s) to be labelled (Zebrafish juveniles) | Fluorescence sensitivity (Zebrafish juveniles) | Staining property (Zebrafish juveniles) | Storage stability [1]
CC1=NN(c2ccc(C(=O)O)cc2)C(=O)/C1=C\c1ccc2c(c1)C1CCCC1N2Cc1ccccc1 (stereo not drawn) [Dye 44] | 510 nm | 558 nm | 48 | liver and gastrointestinal tract | +++ | +++ | ++ (rates of change of the absorbance and fluorescence intensity are 5 to 15%, and thus, the storage stability is excellent)
COc1ccc(N2c3ccc(/C=C/c4sc5ccccc5[n+]4CCC(=O)O)cc3C3CCCC32)cc1 (stereo not drawn) [Dye 72] | 583 nm | 668 nm | 85 | gallbladder and gastrointestinal tract | +++ | +++ | +++ (rates of change of the absorbance and the fluorescence intensity are less than 5%, and thus, the storage stability is highly excellent)
O=C(O)C1=NN(c2ccccc2)C(=O)/C1=C\c1cc(Br)c2c(c1)C1CCCC1N2c1ccc(Br)cc1 (stereo not drawn) [Dye 42] | 563 nm | 618 nm | 55 | skin surface, liver, and gastrointestinal tract | +++ | +++ | ++ (rates of change of the absorbance and fluorescence intensity are 5 to 15%, and thus, the storage stability is excellent)
O=C(O)Cn1c(=O)/c(=C\c2ccc3c(c2)C2CCCC2N3Cc2ccccc2)s/c1=C1/SC(=S)N(Cc2ccccc2)C1=O (stereo not drawn) [Dye 11] | 588 nm | 668 nm | 80 | blood vessel, liver, and gastrointestinal tract | ++ | +++ | +++ (rates of change of the absorbance and the fluorescence intensity are less than 5%, and thus, the storage stability is highly excellent)
N#C/C(=C\c1ccc2c(c1)C1CCCC1N2Cc1ccccc1)C(=O)O (stereo not drawn) [Dye 5] | 482 nm | 580 nm | 98 | liver, gallbladder, and gastrointestinal tract | ++ | +++ | +++ (rates of change of the absorbance and the fluorescence intensity are less than 5%, and thus, the storage stability is highly excellent)
O=C(O)C1=NN(c2ccccc2)C(=O)/C1=C\c1ccc2c(c1)C1CCCC1N2c1ccc(Cc2ccccc2)cc1 (stereo not drawn) [Dye 50] | 481 nm | 586 nm | 105 |  | +++ | +++ | ++ (rates of change of the absorbance and fluorescence intensity are 5 to 15%, and thus, the storage stability is excellent)
COc1ccc(N2c3ccc(/C=C/c4sc5ccccc5[n+]4CC(=O)O)cc3C3CCCC32)cc1 (stereo not drawn) [Dye 31] | 560 nm | 677 nm | 117 | nose | +++ | +++ | +++ (rates of change of the absorbance and the fluorescence intensity are less than 5%, and thus, the storage stability is highly excellent)
CCN1C(=O)/C(=c2\s/c(=C/c3cc(Br)c4c(c3)C3CCCC3N4c3ccc(Br)cc3)c(=O)n2CC(=O)O)SC1=S (stereo not drawn) [Dye 59] | 559 nm | 671 nm | 112 | blood vessel, nose, and gastrointestinal tract | +++ | +++ | +++ (rates of change of the absorbance and the fluorescence intensity are less than 5%, and thus, the storage stability is highly excellent)
CC1=NN(c2ccccc2)C(=O)/C1=C\c1cc(Br)c2c(c1)C1CCCC1N2c1ccc(Br)cc1 (stereo not drawn) [Dye 22] | 570 nm | 598 nm | 28 | liver and gastrointestinal tract | +++ | +++ | ++ (rates of change of the absorbance and fluorescence intensity are 5 to 15%, and thus, the storage stability is excellent)

More lines, main results first:

Excitation wavelength λex [2] | Fluorescence emission wavelength λem [2] | Stokes shift (λem − λex) [2] | SMILES | Site(s) to be labelled (Zebrafish juveniles) | Fluorescence sensitivity (Zebrafish juveniles) | Staining property (Zebrafish juveniles) | Storage stability [1]
486 nm | 606 nm | 120 | O=C(O)CN1C(=O)/C(=C\c2cc(Br)c3c(c2)C2CCCC2N3Cc2ccccc2)SC1=S (stereo not drawn) [Dye 116] | blood vessel, gallbladder, and gastrointestinal | ++ | +++ | +++ (rates of change of the absorbance and the fluorescence intensity are less than 5%, and thus, the storage stability is highly excellent)
592 nm | 671 nm | 79 | COc1ccc(N2c3ccc(/C=C/C4=[N+](CCC(=O)O)c5ccccc5C4(C)C)cc3C3CCCC32)cc1 (stereo not drawn) [Dye 76] | gastrointestinal tract and lower abdomen | +++ | +++ | +++ (rates of change of the absorbance and the fluorescence intensity are less than 5%, and thus, the storage stability is highly excellent)
590 nm | 700 nm | 110 | CCn1c(=O)/c(=C\c2ccc3c(c2)C2CCCC2N3c2ccccc2)s/c1=C1/SC(=S)N(CC(=O)O)C1=O (stereo not drawn) [Dye 137] | gallbladder and gastrointestinal tract | +++ | +++ | +++ (rates of change of the absorbance and the fluorescence intensity are less than 5%, and thus, the storage stability is highly excellent)
598 nm | 726 nm | 128 | O=C(O)CC[n+]1c(/C=C/c2ccc3c(c2)C2CCCC2N3c2ccc(C=C(c3ccccc3)c3ccccc3)cc2)sc2ccccc21 (stereo not drawn) [Dye 73] | nose | +++ | +++ | +++ (rates of change of the absorbance and the fluorescence intensity are less than 5%, and thus, the storage stability is highly excellent)
451 nm | 530 nm | 79 | N#C/C(=C\c1ccc2c(c1)C1CCCC1N2c1ccccc1)C(=O)O (stereo not drawn) [Dye 105] | liver and gastrointestinal tract | ++ | +++ | +++ (rates of change of the absorbance and the fluorescence intensity are less than 5%, and thus, the storage stability is highly excellent)
551 nm | 673 nm | 122 | CCN1C(=O)/C(=c2/s/c(=C/c3ccc4c(c3)C3CCCC3N4c3ccc(C=C(c4ccccc4)c4ccccc4)cc3)c(=O)n2CC(=O)O)SC1=S (stereo not drawn) [Dye 102] | gastrointestinal tract | +++ | +++ | +++ (rates of change of the absorbance and the fluorescence intensity are less than 5%, and thus, the storage stability is highly excellent)
567 nm | 702 nm | 135 | CCN1C(=O)/C(=c2\s/c(=C/c3ccc4c(c3)C3CCCC3N4c3ccc(C=C(c4ccccc4)c4ccccc4)cc3)c(=O)n2CC(=O)O)SC1=S (stereo not drawn) [Dye 103] | gastrointestinal tract | +++ | +++ | +++ (rates of change of the absorbance and the fluorescence intensity are less than 5%, and thus, the storage stability is highly excellent)
564 nm | 651 nm | 87 | CCN1c2ccc(/C=C3/SC(=S)N(CCC(=O)O)C3=O)cc2C2CCCC21 (stereo not drawn) [Dye 123] | gallbladder and gastrointestinal tract | +++ | +++ | +++ (rates of change of the absorbance and the fluorescence intensity are less than 5%, and thus, the storage stability is highly excellent)
541 nm | 619 nm | 78 | O=C(O)CCN1C(=O)/C(=C\c2ccc3c(c2)C2CCCC2N3c2ccccc2)SC1=S (stereo not drawn) [Dye 130] | blood vessel, liver, and gastrointestinal tract | +++ | +++ | +++ (rates of change of the absorbance and the fluorescence intensity are less than 5%, and thus, the storage stability is highly excellent)
440 nm | 600 nm | 160 | CCN1c2ccc(/C=C3/SC(=S)N(CC(=O)O)C3=O)cc2C2CCCC21 (stereo not drawn) [Dye 109] | liver and gastrointestinal tract | +++ | +++ | +++ (rates of change of the absorbance and the fluorescence intensity are less than 5%, and thus, the storage stability is highly excellent)
